Measurements as given in patent US20050014676A1, “Methods for delaying or inducing labor” (Boston Biomedical Research Institute, priority 2003, published 2005).
Entries after “also recorded” stand apart in the source; their conditions may differ.

How the values were obtained:
pregnant rats and pups = experiment: Fetal weight and toxicity to mothers and pups; assay type: in vivo, rat; settings: for Fetal number/rat / Fetal weight: gestation day 20; for Fetal weight: (n) in brackets
Description: Animals and treatment groups. All procedures were approved by our institutional animal care and use committee (IACUC). Sprague-Dawley nonpregnant and time-mated, primigravid pregnant rats (day 1=sperm positive, Taconic, Germantown, N.Y.) were used for the experiments. They were housed in a constant-temperature room with a 12-hr light and 12-hr dark cycle. Food and water were available ad libitum. The rats were divided into five groups: nonpregnant (NP), sham, RU486 treated (RU), U0126+RU486 treated (U0+RU) and spontaneous labor (SL). The sequential scheme of the experiment is illustrated in FIG. 1.
Induction of preterm labor: In the RU group, rats (n=6) were treated with RU486 subcutaneously (SC) at dose of 2 mg/kg (concentration of 3 mg/ml in sunflower seed oil) at 10 am on day 19 of pregnancy. Then the rats were closely observed for signs of labor on day 20 of pregnancy.
U0126 treatment: In the U0+RU group, 18-day pregnant rats (n=6) were treated with U0126 at dose of 100 mg/kg, SC, q8h (7 am, 3 pm and 11 pm). U0126 was dissolved at a concentration of 200 mg/ml in DMSO. On day 19 of pregnancy, the rats were administrated RU486 at 10 am for preterm labor induction. The U0126 treatment continued till the onset of labor.
Tissue preparation and force recording.

[1] = system: Sprague-Dawley pregnant rats; experiment: RU486-induced preterm labor in rats, onset of labor; settings: for average delivery time after RU486 administration: RU486 2 mg/kg SC at 10 am day 19 of pregnancy, U0126 100 mg/kg SC q8h from day 18 until labor, mean±SEM
myometrial strips = experiment: In vitro myometrial contractility (isometric force, AUC) of strips from treated rats
[2] = system: high molecular weight caldesmon (h-CaD); experiment: Western blot of myometrial h-CaD phosphorylation (Ser789); parameters: species or system rat; settings: myometrium at onset of labor
Description: (§1) Western blot analysis. The muscle strips were quick-frozen in a dry ice acetone/DTT/TCA slurry at the end of force recording experiment. Samples were homogenized in a buffer containing 20 mM MOPS, 4% SDS, 1% Triton, 10% glycerol, 10 mM DTT, 20 mM β-glycerophosphate, 5.5 μM leupeptin, 5.5 μM pepstatin A, 20 KIU aprotinin, 2 mM Na3VO4, 1 mM NaF, 20 μM 4-(2-aminorthyl) benzenesulphonyl fluoride (AEBSF) and 100 μM ZnCl2. Protein-matched samples were SDS-PAGE electrophoresed, transferred to Immobilon-P membrane (Millipore, Bedford, Mass.), and subjected to immunostaining using the appropriate antibody. Blots were visualized with a SuperSignal West Pico Peroxide Solution (Pierce, Rockford, Ill.). The images were detected with a chemiluminescence screen and quantified with a BioRad Molecular Imager and Multi-Analyst software.

ERK2 = experiment: Western blot of myometrial ERK2 phosphorylation (p-ERK2/ERK2); parameters: species or system rat; settings: myometrium at onset of labor
Description: as §1

[3] = system: 20-kDa myosin light chain (LC20); experiment: Measurement of myosin light chain 20 phosphorylation (LC20-P) in permeabilized myometrial strips; parameters: species or system rat; settings: 51 mM KCl stimulated for 4 min myometrial strips
Description: Measurements of myosin light chain 20 phosphorylation (LC20-P). Tissue preparation was as described above. After equilibration and stretching, the myometrial strips were permeabilized with 20 μg/ml alpha-toxin (List Biological Lab, Campbell, Calif.) at 34° C. for 30 min. The intracellular Ca2+ concentration was clamped at pCa7.0 for 12 min to prevent an artifactual triggering of contractions in response to the freezing solution. The measurement of LC20-P was performed by glycerol urea gels and western blots as previously published (Je et al., J. Physiol. 537, 567-577 (2001)). Moles phosphate per mole myosin light chain was calculated by dividing the density of the phosphorylated band by the sum of densities of phosphorylated plus the unphosphorylated bands.

SMILES	Fetal number/rat (pregnant rats and pups)	Fetal weight (pregnant rats and pups)	average delivery time after RU486 administration ([1]; n=6) [h]	average gestational length ([1]; RU486-induced preterm labor, Mean±SD, n=6) [days]	area under force curve (AUC) normalized to tissue dry weight (myometrial strips; strips from treated rats at labor, force integrated over 15 min) [g·s/mg]	h-CaD phosphorylation normalized to CaD protein, words [2]	ERK2 phosphorylation (p-ERK2/ERK2), words (ERK2)	signs of toxicity to mother or offspring (pregnant rats and pups; U0126 at doses sufficient to delay preterm labor)	effect on fetal weight (pregnant rats and pups; U0126 treatment)	daily weight gain or general behavior of pregnant rats, U0+RU vs RU group (pregnant rats and pups; data not shown)	delay of RU486-induced preterm labor ([1]; U0126 pretreatment, rats)	myometrial AUC once labor commenced, vs RU486 or spontaneous labor (myometrial strips; U0+RU group)	LC20-P level, positive control [3]
CC#C[C@]1(O)CC[C@H]2[C@@H]3CCC4=CC(=O)CCC4=C3[C@@H](c3ccc(N(C)C)cc3)C[C@@]21C [RU486, 11 β-[4-Dimethylamino] phenyl-17β-hydroxy-17-[1-propynyl] estra-4,9-dien-3-one]	13.4	2.46 ± 0.068 (16) grams	22.25 ± 0.24	20.35 ± 0.02	381.49 ± 44.92	–	–	–	–	–	–	–	–
N#CC(=C(N)Sc1ccccc1N)C(C#N)=C(N)Sc1ccccc1N [U0126, 1,4-diamino-2,3-dicyano-1,4-bis (2-aminophenylthio) butadiene]	12.3	2.46 ± 0.036 (31) grams	25.18 ± 0.64	–	–	indistinguishable	indistinguishable	no apparent signs of toxicity; also recorded: no obvious signs of toxicity	did not affect fetal weight	no difference	delays RU486-induced preterm labor in a statistically significant manner	indistinguishable	–
[Cl-].[K+] [KCI]	–	–	–	–	–	–	–	–	–	–	–	–	39.68±3.33
